Data: ChEMBL document CHEMBL2062358, “Hortonones A to C, hydroazulenones from the genus Hortonia” (J Nat Prod, 2012)
The source made the active and inactive calls. The calls are words filed in the database; no cut-off is given here.

Columns and labels:
MCF7 [1] = assay: Cytotoxicity against human MCF7 cells at 5 ug/ml after 48 hrs by MTT assay; format: functional, cell-based
MCF7 [2] = assay: Cytotoxicity against human MCF7 cells at 100 ug/ml after 48 hrs by MTT assay; format: functional, cell-based

| SMILES | Activity (MCF7 [1]) | Activity (MCF7 [2]) |
| --- | --- | --- |
| CC(C)[C@H]1CC[C@@H]2C=CC(=O)CC[C@]12C (relative stereo) | Active | – |
| CC(C)[C@H]1CC[C@@H]2C(=O)C=C(CO)CC[C@@]21C (relative stereo) | – | inactive |
| CC1=CC(=O)[C@H]2CC[C@H](C(C)C)[C@@]2(C)CC1 (relative stereo) | – | inactive |
